Test results published in US4223041A, “Urea derivatives to treat anxiety and aggressivity” (Labaz, priority 1976, dated 1980).
Like-named read-outs stand apart in the source and are kept apart here.

Columns and labels:
[1] = Anxiolytic and antiaggressive properties and separation from sedation (general statements); conditions: in vivo
[2] = cited from earlier work
[3] = Four plates test (anxiolytic action); assay type: in vivo, mouse; conditions: 0.5 h; 105 mg/kg oral, mouse, 30 min after administration; read-out: % of protection against anxiety
Text: This test, which is specific to the anxiolytics, was undertaken with the mouse, thirty minutes after the oral administration of the compound to be studied.
It consists in placing mice in a box with fairly high walls, of which the bottom comprises four square plates. These plates, which all have the same dimensions, are separated from each other by a central axis and are alternately electrified by the positive and negative poles of a source of electric current. There is a space of a few millimeters between adjacent plates.
The mouse placed in this apparatus explores it and thus passes over the different plates in succession. Note is taken of the number of times each animal passes over the plates during one minute. When the current is switched on, the mouse passing over the plates receives an electric shock (80 V), which provokes a gradual decrease in the exploratory movements, and finally brings the animals to a complete stop.
Anxiolytic agents enable the animals to become more or less indifferent to the electric shock.
The percentage of protection against anxiety given by compounds of the invention was calculated by comparing the number of times the control animals passed over the plates when electrified with the number of times the treated animals passed over the electrified plates.

[4] = rota rod test (neurotoxicity); assay type: in vivo, mouse; conditions: 370 mg/kg oral, mice, 30 min after administration
Description: The test used was that known as the rota rod test described by BOISSIER (Therapie 1958 XIII pp. 1074-1118).
This test aims at determining the ability of mice to coordinate their movements by seeing to what extent they can remain on a roller turning at a rate of 4 revolutions per minute for two minutes. The trial was carried out thirty minutes after administration by oral route of the compound to be studied and the percentage of failures was noted.
The value of this test is twofold. Failure on the part of the animals gives a very early indication of the slightest damage to the meuromuscular functions which cannot be discerned by any other means. Secondly, this test serves as an element of comparison for drawing up index figures involving the results obtained with other tests.

[5] = Action on the pentylenetetrazole-induced seizure (anticonvulsant activity); assay type: in vivo, mouse
Description: The purpose of this test which is carried out on mice is to determine whether the compounds of the invention, when given preventively by oral route, are capable at certain doses of protecting some of the animals against the epileptic seizure produced by a predetermined dose of pentylenetetrazole which would be 100% fatal in the absence of the compound.
The compound to be studied was administered fifteen minutes before an injection of 125 mg/kg of pentylenetetrazole and note was taken of the number of deaths occurring during the three hours following this injection. The results were expressed in percentage of protection of the animals against death at the dose studied.

[6] = Action with respect to tremorine (cholinolytic properties); assay type: in vivo, mouse; conditions: 170 mg/kg oral, mice, 30 min before 100 mg/kg i.p. tremorine
Description: This test has been described by EVERETT (Nature, 1956, 177-238)
When injected into mice, tremorine produces peripheral cholinergic effects i.e. weeping, hypersalivation, sedation, diarrhea as well as central cholinergic effects i.e. tremors, akinesia.
Batches of 10 mice separated into individual cages, were given the compound to be studied, by oral route, 30 minutes before administration of an intraperitoneal dose of 100 mg/kg of tremorine.
Note was then taken in each batch of the percentage of animals presenting the various symptoms of tremorine-induced poisoning since at such a dose of tremorine 100% of the control animals are poisoned.
The results hereunder are expressed in percentage of mice protected against tremor at the dose of the compound of the invention which was administered: […]

[7] = "Electrically-provoked combat" test (anxiolytic action); assay type: in vivo, mouse; conditions: Mus musculus, 0.5 h; 71 mg/kg, mice, 30 min before test; read-out: % of decrease in number of combats
Text: Under certain conditions, a pair of mice reacts to an electric stimulus by a series of combats which are provoked by the anxiety felt by the animals as a result of the electric shock. This anxiety is expressed by a combat with the other animal which is rendered responsible. For this reason, the test described hereunder can be considered as a means of evaluating the anxiolytic action of a compound. Two mice which have been previously on a diet consisting only of water are placed together in a cage. They are then submitted to a series of electric impulses of an intensity varying between 40 and 80 volts according to the sensitivity of the animals. The test is first carried out with untreated animals as controls and then with the same animals treated 30 minutes before the test with a dose of the compound to be studied.
Note is taken on the number of combats engaged. The results are expressed in percentage of decrease in the number of combats engaged by the treated animals in comparison with the number of combats registered before treatment.

[8] = Arch. Int. Pharmacodyn 219, 104-115 (1976)

With `CCCC(CCC)(CCC)NC(=O)NC(C)=O` [1-(1,1-di-n-propyl-n-butyl)-3-acetyl-urea] the “anxiolytic and antiaggressive activity (in words)” value [1] was “inactive or practically devoid of any anxiolytic or antiaggressive activity”.
In the case of `CC(C)(C)NC(N)=O` [tert-butyl-urea], the “pharmacological properties (in words)” value [2, 8] is given as “anticonvulsant, hypnotic and sedative properties” and the “potentiation of hypnotic effects of the barbiturates” value [2, 8] is given as “potentiator of the hypnotic effects of the barbiturates”.
In the case of `CCCC(CCC)(CCC)NC(=O)NC(=O)c1ccccc1` [1-(1,1-di-n-propyl-n-butyl)-3-benzoyl-urea], the “anxiolytic and antiaggressive activity (in words)” value [1] is reported as “inactive or practically devoid of any anxiolytic or antiaggressive activity”.
In the case of `C#CC(CC)(CC)NC(N)=O` [Compound C, 1-(1,1-Diethyl-2-propynyl)-urea], the inhibition in vivo at 105 mg/kg [3] is reported as 50%, the “% of failures in rota rod test” value [4] is reported as 50% and the responders at 70 mg/kg ([5]; Mus musculus, po, 3 h, read-out: % of protection against death) is reported as 50%. The “anticonvulsant activity (in words)” value ([5]; pentylenetetrazole-induced seizure, mice, oral) was “considerable”, the “% of protection against tremor” value [6] was 0% and the inhibition in vivo at 71 mg/kg [7] was 50%.
For `CCCCNC(N)=O` [n-butyl-urea], the “pharmacological properties (in words)” value ([2]; Arch. Int. Pharmacodyn 208, 204-212 (1974)) is listed as “properties similar to those cited hereabove with respect to tert-butyl-urea”.
